Data as given in patent US9649313B2, “Use of ITK inhibitors for the treatment of cancer” (The University of North Carolina at Chapel Hill, priority 2012, dated 2017).

Target: T1, MST1 (Homo sapiens, UniProt Q13043)
T1 construct: purchased Carna Biosciences
T1 sequence (Q13043 1-487): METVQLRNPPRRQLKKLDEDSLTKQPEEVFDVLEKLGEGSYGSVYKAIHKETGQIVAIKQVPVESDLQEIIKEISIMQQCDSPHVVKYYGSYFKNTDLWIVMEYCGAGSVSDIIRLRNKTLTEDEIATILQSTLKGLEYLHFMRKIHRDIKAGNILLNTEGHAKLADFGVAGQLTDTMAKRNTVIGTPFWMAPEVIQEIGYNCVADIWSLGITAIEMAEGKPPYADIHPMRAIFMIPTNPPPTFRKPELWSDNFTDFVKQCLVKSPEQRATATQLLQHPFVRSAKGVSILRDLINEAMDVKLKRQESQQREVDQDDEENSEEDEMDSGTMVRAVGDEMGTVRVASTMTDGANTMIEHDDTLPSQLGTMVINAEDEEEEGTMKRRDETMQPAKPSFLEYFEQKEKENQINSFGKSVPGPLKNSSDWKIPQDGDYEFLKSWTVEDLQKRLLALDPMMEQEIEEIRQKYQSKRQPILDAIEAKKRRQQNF
Experiment: cell-free kinase assay
Format: biochemical
Text: We investigated the potency and selectivity of BI 10N against 56 kinases using a cell-free assay (Table 8A).
The selectivity of this inhibitor was investigated by testing the potency of the inhibitor at two concentrations with 53 kinases by Carna Biosciences (MA) (Table 2).

C[C@]12O[C@H](C[C@]1(O)C(=O)O)n1c3ccccc3c3c4c(c5c6ccccc6n2c5c31)CNC4=O [K252b]
IC50 (ATP concentration at approximately the Km for ATP): 3.43 nM
IC50 (Table 2, by Carna Biosciences): 3.43 nM
